How the values were obtained:
phospho-(Ser63)-c-jun = assay: Rat In Vivo TNFα-Induced Kidney Phospho-c-Jun Assay; parameters: species or system Sprague-Dawley rats; settings: Example D, 2 doses of 75 mg/kg oral (0 and 12 h), TNFα 2.5 ug/kg i.v. at 23 h, killed 1 h later, normalized to Group 2 as 100%, mean (standard deviation)
Experimental: Male Sprague-Dawley rats were obtained from Charles River and acclimatized for at least one week prior to use at age 6-8 weeks. Rats (n=8 per group) were administered Compound I-1 (Group 3; 75 mg/kg from a Microprecipitated Bulk Powder formulation resuspended in Klucel vehicle at 18.75 mg/mL) or vehicle alone (Groups 1 and 2) via oral gavage. Seven hours later, rats received an intravenous challenge of 2.5 μg/kg recombinant rat TNFα (Sigma) in saline (Groups 2 and 3) or saline alone (Group 1). After a further 1 h, the animals were killed by carbon dioxide inhalation. Kidneys were removed, rapidly frozen in liquid nitrogen and stored at −80 degrees until analysis.
Sample analysis was performed as described for mouse kidneys in Example a.
Male Sprague-Dawley rats were obtained from Charles River and acclimatized for at least one week prior to use at age 6-8 weeks. Rats (n=8 per group) were administered Compound I-1 (Groups 3 and 4; 75 mg/kg from a Microprecipitated Bulk Powder formulation resuspended in Klucel vehicle at 18.75 mg/mL) or vehicle alone (Groups 1 and 2) via oral gavage. Group 3 received an additional identical dose 12 hours later. Group 4 received an additional identical dose at 8 and 16 hours after the first dose. […]

[1] = tested on: phospho(Ser63)-c-jun in HK-2 cells; assay: Cell-based assay for JNK inhibitors: in-cell ELISA of TNFα-stimulated phospho(Ser63)-c-jun in HK-2 cells; settings: Homo sapiens, 10 ng/mL TNFα, 60 min preincubation with compound
Experimental: Cell-Based Assay for JNK Inhibitors
The cell-based assay employed the in-cell ELISA method to determine the ability of compounds to prevent the generation of phospho(Ser63)-c-jun in HK-2 cells (human proximal tubule cells) in response to stimulation with tumor necrosis factor α (TNFα). In brief, for quantification of phospho(Ser63)-c-jun, the cells (in 96-well format) were fixed and permeablized then incubated sequentially with a rabbit anti-phospho-c-jun First Antibody specific for the presence of the phospho-Ser63 epitope and a donkey anti-rabbit IgG Second Antibody linked to horseradish peroxidase (HRP) for colorimetric quantitation of binding. For determination of non-specific binding of the First Antibody, Blank wells were preincubated with a mouse anti-phospho(Ser63)-c-jun Blocking Antibody that prevented specific binding of the First Antibody to the phospho-Ser63 epitope, but which was not recognized by the donkey anti-rabbit IgG Second Antibody. […] Blank wells received no TNFα stimulation or compound. Additional Control wells received TNFα stimulation, but no compound. The signal obtained in this case was considered the value for 0% inhibition (Control value).
Stock cultures of HK-2 cells (ATCC, Manassas, Va.) were grown under a 5% CO2/[…] atmosphere at 37 degrees C. in Keratinocyte-SFM medium (KSFM, Invitrogen, Grand Island, N.Y.) containing 5 μg/L epidermal growth factor and 5 mg/L bovine pituitary extract (both supplied with the medium), additionally supplemented with 10% (v/v) fetal calf serum (FCS; Invitrogen, Grand Island, N.Y.) and 1% (v/v) antibiotic-antimycotic (ABAM: Sigma, St. Louis, Mo.). For assays, cells were seeded in collagen coated 96-well polystyrene plates (BD Biosciences, Franklin Lakes, N.J.) at a density of 40,000 cells/well and cultured for 24 h in the same medium (100 μL/well) followed by a further 16-24 h in 100 μL of similar medium, but without FCS. […] Cells were incubated for a further 30 minutes and then the medium was aspirated and the wells washed with 100 μL/well PBS followed by the addition of 100 μL 3.7% (v/v) Formaldehyde (Fisher Scientific, Fair Lawn, N.J.) in PBS. Plates were then allowed to stand at room temperature for 20 minutes before being washed with 200 μL/well of PBS. (Further steps were performed immediately or the plates were stored at 4 degrees C. and the assay completed the next day.) To each well was added 100 μL 1% (v/v) TritonX-100 (Sigma, St. Louis, Mo.) in PBS followed by 20 minutes standing at room temperature, washing with 200 μL/well PBS, the addition of 100 μL/well of Quenching buffer (1% (v/v) hydrogen peroxide (Sigma, St. Louis, Mo.) and 0.1% (w/v) sodium azide (Fisher Scientific, Fair Lawn, N.J.)) in PBS and a further 20 minutes at room temperature. Plates were then washed twice with 200 μL/well of 0.1% (v/v) Tween-20 (Teknova, Hollister, Calif.) in PBS before addition of 200 μL/well of 2% BSA/0.10% Tween-20 in PBS and a further 1 hour at room temperature. At this time, buffer was removed from Blank wells and replaced with 90 μL/well of mouse anti-phospho-c-jun-Ser63 (BD Bioscience, 558036) diluted 1:4000 in PBS containing 1% BSA/0.1% Tween-20 (Antibody Dilution Buffer). All other wells are replaced with 90 μL/well of rabbit anti-phospho-c-jun-Ser63 (Cell Signaling, 9261) diluted 1:250 in Antibody Dilution Buffer. After a further one hour, rabbit anti-phospho-c-jun-Ser63 is added directly to the solution in the Blank wells resulting in 1:250 dilution of this antibody. Plates were then placed on a slowly rotating platform at 4 degrees C. overnight. Wells were then washed thrice with 200 μL/well PBS/0.1% Tween-20. After addition of the third wash, the plates were placed on a slowly rotating platform for 15 minutes at room temperature. […]

JNK1 = JNK1 (Homo sapiens, UniProt P45983); assay: In vitro JNK1 Assay (TR-FRET, phosphorylation of GST-c-Jun); assay type: biochemical; settings: 0.2 nM JNK1, 26.7 nM GST-c-Jun, 2 μM ATP
Experimental: Phosphorylation of GST-c-Jun protein (amino acid residues 1-79) was measured as JNK1 activity. […] The reaction buffer contained 50 mM HEPES, pH 7.0, 10 mM MgCl2, 1 mM DTT, 0.1 mM Na3 VO4 and 0.2 mg/mL BSA. After 30 min. incubation at room temperature, the reaction was terminated by adding buffer containing 8 mM EDTA and a polyclonal anti-phospho-c-Jun antibody (Cell Signaling #9261L), followed by an additional incubation of 30 min. at room temperature. […] Time-resolved Fluorescence Resonance Energy Transfer (TR-FRET) signals were measured 1 hr. later on the EnVision reader (Perkin Elmer). Compound potency was assessed at 10 serially diluted concentrations. Percentage of inhibition at each concentration was determined to generate an IC50 value for each compound.

Chain of JNK1 (P45983 whole entry, species assumed, the tested form may be a part): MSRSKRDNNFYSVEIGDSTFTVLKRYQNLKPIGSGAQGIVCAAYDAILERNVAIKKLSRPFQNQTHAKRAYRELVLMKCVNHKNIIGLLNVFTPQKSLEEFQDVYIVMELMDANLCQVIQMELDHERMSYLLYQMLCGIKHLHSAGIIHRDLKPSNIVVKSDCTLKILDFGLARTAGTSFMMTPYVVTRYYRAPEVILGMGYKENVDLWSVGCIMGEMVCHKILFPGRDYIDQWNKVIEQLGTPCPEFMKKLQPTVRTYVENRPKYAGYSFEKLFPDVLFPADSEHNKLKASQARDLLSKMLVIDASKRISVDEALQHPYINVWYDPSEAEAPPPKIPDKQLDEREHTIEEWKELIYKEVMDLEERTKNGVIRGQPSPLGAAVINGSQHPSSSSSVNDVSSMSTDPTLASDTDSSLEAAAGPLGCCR

EC50 [1]: 4.1 µM
IC50 (JNK1): 0.012 µM
SMILES: COC(=O)c1c(Cc2ccc(C(=O)N[C@@H]3[C@@H]4C[C@@H]5C[C@H]3C[C@@](O)(C5)C4)cc2)c(=O)c2cccnc2n1-c1ccccc1 [Compound I-1, rel-3-[4-((1S,2S,3R,5S,7S)-5-Hydroxy-adamantan-2-ylcarbamoyl)-benzyl]-4-oxo-1-phenyl-1,4-dihydro-[1,8]naphthyridine-2-carboxylic acid methyl ester]
Kidney phospho-c-jun (phospho-(Ser63)-c-jun): 59.6 (30.0) %
